Laboratory results: patent US7592336B2, “Hepatitis C virus inhibitors” (Bristol-Myers Squibb Company, priority 2005, dated 2009)
Where two headings read alike, the source gives them in different places.

Molecular target: T1, HCV NS3/4A protease complex, BMS strain (UniProt P27958, species not given/STRAIN_BMS)
T1 construct: said of H77 and J4L6S, not expressly of BMS; fused on or other part: A three-lysine solubilising tail at the NS4A C-terminus and purification on Ni-NTA are described for the H77 and J4L6S constructs
Experiment: FRET peptide assay to monitor HCV NS3/4A proteolytic activity (BMS strain)
Format: biochemical, HCV genotype 1a
Text: HCV NS3 protease complexes, derived from the BMS strain, H77 strain or J4L6S strain, were generated, as described below. These purified recombinant proteins were generated for use in a homogeneous assay (see below) to provide an indication of how effective compounds of the present disclosure would be in inhibiting HCV NS3 proteolytic activity.
Serum from an HCV-infected patient was obtained from Dr. T. Wright, San Francisco Hospital. An engineered full-length cDNA (compliment deoxyribonucleic acid) template of the HCV genome (BMS strain) was constructed from DNA fragments obtained by reverse transcription-PCR (RT-PCR) of serum RNA (ribonucleic acid) and using primers selected on the basis of homology between other genotype 1a strains. From the determination of the entire genome sequence, a genotype 1a was assigned to the HCV isolate according to the classification of Simmonds et al. (See P Simmonds, K A Rose, S Graham, S W Chan, F McOmish, B C Dow, E A Follett, P L Yap and H Marsden, J. Clin. Microbiol., 31(6), 1493-1503 (1993)). […] The infectious clones, H77 (1a genotype) and J4L6S (1b genotype) were obtained from R. Purcell (NIH) and the sequences are published in Genbank (AAB67036, see Yanagi, M., Purcell, R. H., Emerson, S. U. and Bukh, J. Proc. Natl. Acad. Sci. U.S.A. 94(16), 8738-8743 (1997); AF054247, see Yanagi, M., St Claire, M., Shapiro, M., Emerson, S. U., Purcell, R. H. and Bukh, J, Virology 244 (1), 161-172. (1998)).
NS3/4A protease complex-containing fractions were pooled and loaded on a desalting column Superdex-S200 pre-equilibrated with buffer D (25 mM HEPES, pH 7.5, 20% glycerol, 300 mM NaCl, 0.2% Triton X-100, 10 mM βME). Sample was loaded at a flow rate of 1 mL/min. NS3/4A protease complex-containing fractions were pooled and concentrated to approximately 0.5 mg/ml. The purity of the NS3/4A protease complexes, derived from the BMS, H77 and J4L6S strains, were judged to be greater than 90% by SDS-PAGE and mass spectrometry analyses. The enzyme was stored at −80° C., thawed on ice and diluted prior to use in assay buffer.
The purpose of this in vitro assay was to measure the inhibition of HCV NS3 protease complexes, derived from the BMS strain, H77 strain or J4L6S strain, as described above, by compounds of the present disclosure. This assay provides an indication of how effective compounds of the present disclosure would be in inhibiting HCV NS3 proteolytic activity.
In order to monitor HCV NS3/4A protease activity, an NS3/4A peptide substrate was used. The substrate was RET S1 (Resonance Energy Transfer Depsipeptide Substrate; AnaSpec, Inc. cat #22991) (FRET peptide), described by Taliani et al. in Anal. Biochem. 240(2):60-67 (1996). The sequence of this peptide is loosely based on the NS4A/NS4B natural cleavage site for the HCV NS3 protease except there is an ester linkage rather than an amide bond at the cleavage site. The peptide also contains a fluorescence donor, EDANS, near one end of the peptide and an acceptor, DABCYL, near the other end. The fluorescence of the peptide is quenched by […] resonance energy transfer (RET) between the donor and the acceptor, but as the NS3 protease cleaves the peptide the products are released from RET quenching and the fluorescence of the donor becomes apparent.
The peptide substrate was incubated with one of the three recombinant NS3/4A protease complexes, in the absence or presence of a compound of the present disclosure. The inhibitory effects of a compound were determined by monitoring the formation of fluorescent reaction product in real time using a Cytofluor Series 4000.
Assay buffer: 50 mM HEPES, pH 7.5; 0.15M NaCl; 0.1% Triton; 15% Glycerol; 10 mM βME. Substrate: 2 μM final concentration (from a 2 mM stock solution in DMSO stored at −20° C.). HCV NS3/4A protease type 1a (1b), 2-3 nM final concentration (from a 5 μM stock solution in 25 mM HEPES, pH 7.5, 20% glycerol, 300 mM NaCl, 0.2% Triton-X100, 10 mM βME). […]

T1 sequence (P27958 1027-1657, change not shown, one chain of several): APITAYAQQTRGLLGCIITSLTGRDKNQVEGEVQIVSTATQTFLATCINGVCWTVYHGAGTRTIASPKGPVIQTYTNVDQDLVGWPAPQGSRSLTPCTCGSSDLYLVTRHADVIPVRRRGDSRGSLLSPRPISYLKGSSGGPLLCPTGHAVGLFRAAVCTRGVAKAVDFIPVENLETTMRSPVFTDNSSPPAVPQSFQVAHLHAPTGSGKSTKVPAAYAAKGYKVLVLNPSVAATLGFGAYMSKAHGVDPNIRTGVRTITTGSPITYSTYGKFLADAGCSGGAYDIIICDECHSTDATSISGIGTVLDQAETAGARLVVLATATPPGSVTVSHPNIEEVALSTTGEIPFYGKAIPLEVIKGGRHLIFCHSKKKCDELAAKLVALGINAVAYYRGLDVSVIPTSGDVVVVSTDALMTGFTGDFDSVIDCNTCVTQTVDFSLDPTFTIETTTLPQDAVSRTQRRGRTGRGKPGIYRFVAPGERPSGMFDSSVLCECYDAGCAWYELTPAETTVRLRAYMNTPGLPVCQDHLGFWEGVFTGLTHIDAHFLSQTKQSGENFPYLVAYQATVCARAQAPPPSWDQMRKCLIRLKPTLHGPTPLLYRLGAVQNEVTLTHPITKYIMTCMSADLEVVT

Which results are given for `C=C[C@@H]1C[C@]1(NC(=O)[C@@H]1C[C@@](O)(c2ccc(-c3ccccc3)cc2)CN1C(=O)[C@@H](NC(=O)OC(C)(C)C)C(C)(C)C)C(=O)NS(=O)(=O)C1CC1` [Compound 3]?
IC50 (BMS strain, read-out: IC50 against the NS3/4A BMS strain in the enzyme assay): 4 nM; IC50 (NS3/4A BMS strain, read-out: Activity Range (IC50)): 1 to 100 nM
